# Laboratory results published in patent US5013719A, “Method of effecting immunosuppression” (Merrell Dow Pharmaceuticals Inc., priority 1988, dated 1991).
# Tested on: cytolytic T lymphocyte induction (51Cr labeled P815 target cells)
# Test: Cytolytic T-lymphocyte induction in vivo (splenic cytolytic activity, 4-hour 51Cr release assay)
# Set-up: species or system C57BL/6 mice
# Conditions: DFMO 2% in drinking water from day 1; splenic CTL activity day 10; vs vehicle treated control
# Procedure: Alloreactive cytolytic T-lymphocytes (CTL) are generated in vivo by injecting C57BL/6 mice intraperitoneally with allogenic P815 (H-2^d) cells (10^7) on day 0.
# Splenic cytolytic activity, which represents a direct measurement of immune response, is assessed by a 4-hour ^51 Cr release assay as described by Bowlin et al., Cell. […] Effector cells are characterized as T-cells based on surface phenotype (Thy 1.2^+, Lyt 2.2^+, L3T4^-) and allo-specificity (H-^2 d) as described by Bowlin et al., Cell Immunnol.
# ^a C57BL/6 mice were injected with allogeneic P815 cells on day 0.
# DFMO was administered continuously, starting on day 1, in drinking water.
# ^b Splenic cytolytic T lymphocyte activity was assessed on day 10
# utilizing ^51 Cr labeled P815 target cells. Data is expressed as %
# inhibition compared with vehicle treated control.
compound,measurement,value
"NCCC[C@](N)(C(=O)O)C(F)F [DFMO, α-difluoromethylornithine]","Cytolytic T Lymphocyte Induction % Inhibition (mean ± S.E., n = 3)",10 ± 0.5%
